Measurements: patent US5780441A, “Sphingoglycolipid compounds and therapeutic uses thereof” (Kirin Beer Kabushiki Kaisha, priority 1993, dated 1998)

Tests used:
[1] = tested on: P388 mouse leukemia cells; assay: Life-span-prolonging (anti-tumor) effect on mice subcutaneously inoculated with P388 mouse leukemia cells; assay type: in vivo, mouse (CDF1 female); details: for Survival days ave. ± s. d.: all marked ** (p < 0.01); for response vs control in vivo at 0.1 mg/kg: Mus musculus, P388, iv, read-out: T/C (%)
In short: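 CDF1 female mice (6 weeks), 5 per group, inoculated subcutaneously with P388 leukemia cells; life-span prolongation assessed. Lentinan and picibanil given intravenously on days 1, 3, 5, 7 and 9 after implantation; sizofilan given subcutaneously on days 1 through 9. Statistics by Mann-Whitney test.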

B16 mouse melanoma cells = assay: Tumor growth inhibition in mice subcutaneously inoculated with B16 mouse melanoma cells; assay type: in vivo, mouse (BDF1 female); details: 0.1 mg/kg i.v. days 1, 5, 9; maximum during 20 days
In short: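 Female BDF1 mice (6 weeks, n=6/group) bearing subcutaneous B16 melanoma. Tumor volume [(length×width×height)/2] measured on days 8, 12, 16 and 20 after implantation; growth inhibition rate computed from treated vs control tumor volumes.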

mouse bone marrow cells = assay: In vitro mouse bone marrow cell-proliferation-promoting effect (3H-TdR uptake); assay type: cell-based, mouse (BDF1 female); details: 4 days; for Uptake of 3H-TdR (% of control), bone marrow cells: 5760 min; for activity at 0.1 µg/mL / activity at 0.01 µg/mL: Mus musculus, Bone marrow cell, 96 h, read-out: Uptake of 3H-TdR (% of control), bone marrow cells
In short: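 Femoral bone marrow monocytes from 6-week female BDF1 mice (Lympholite M fraction, 1×10^6 cells/ml in 10% FCS RPMI 1640) cultured with sample for 4 days at 37 °C, 5% CO2. 3H-TdR (0.5 μCi/well) added for final 6 h; uptake ratio versus vehicle reported as activation rate.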

mouse splenic lymphocyte = assay: In vitro mouse splenic lymphocyte-proliferation-stimulating effect (3H-TdR uptake); assay type: cell-based, mouse (BDF1 female); details: 2 days; for Uptake of 3H-TdR (% of control), splenic lymphocytes: 2880 min
In short: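 Spleen cells from 6-week-old female BDF1 mice, 2×10^6 cells/ml in 10% FCS RPMI 1640, cultured with vehicle or sample 2 days at 37° C, 5% CO2. ^3H-TdR (0.5 μCi/well) uptake over 6 h by scintillation counting, expressed as % of vehicle.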

[2] = tested on: mixed lymphocyte culture reaction (spleen cells of C57BL/6 and BALB/C mice); assay: Mixed lymphocyte culture reaction (MLR); assay type: cell-based, mouse (C57BL/6 stimulator, BALB/C responder); details: 42 hours; for MLR activating rate (%): 2520 min
In short: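 Mouse one-way MLR: mitomycin C-treated (50 μg/ml, 30 min) C57BL/6 spleen cells stimulated BALB/C responder spleen cells, 2×10^6 cells/ml each, cultured 42 h at 37 °C with sample. ³H-thymidine (0.5 μCi/well) incorporation over a further 8 h gave MLR activating rate as % of vehicle uptake.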

lethally irradiated mice = assay: Radioprotective effect: life-span prolongation of lethally irradiated mice; assay type: in vivo, mouse (BDF1 female); details: 0.1 mg/kg i.v. days 0, 4, 8, 9 Gy X-ray, groups of 10, 0.1 mg/kg
In short: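 Female BDF1 mice (6 weeks, groups of 10) given 9 Gy X-ray on day 0, then compound 0.1 mg/kg intravenously by tail vein on days 0, 4 and 8. Survival followed for 40 days.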

[3] = Solubility in water in aqueous Polysorbate 20 solutions; assay type: physicochemical; details: for amount of Polysorbate 20 required for dissolving, relative to that required for Compound b: vs Compound b
Experimental: Compounds a and b comprising a monosaccharide as a constituent sugar which are disclosed in WO 93/05055 were synthesized as above. A 1 mg of each of the present compounds 4, 31 and 33 and Compound a and b was dissolved in 1 ml of an aqueous Polysorbate 20 solution in a variety of concentrations in order to observe visually the property.

[4] = tested on: mouse splenic lymphocytes; assay: Influence of Polysorbate on immunostimulating effect (3H-TdR uptake into mouse splenic lymphocytes); assay type: cell-based, mouse (BDF1 female); details: for 3H-TdR uptake in words, compound with Polysorbate 20: 10 μg/ml (0.1% Polysorbate 20) and 1 μg/ml (0.01%) vs 0.1 μg/ml (0.001%); for 3H-TdR uptake: mean of 3 wells
Experimental: Experiment was performed with BDF1 female mice (6 weeks old) purchased from NIPPON SLC K.K. Spleens were removed from mice, and spleen cells were brayed with slide glasses and hemolized with NH4 Cl. 2×10^6cells/ml of the spleen cells which had been hemolized were suspended in 10% FCS RPMI 1640. The cell suspension (100 μl/well) and a vehicle or sample (10 μl/well) which was prepared so as to have a final level shown in Table 3 were added into wells of a round-bottomed 96 well plate, and cultured under the condition of 5% CO2 at 37° C. for 2 days. 0.5 μCi/well of ^3 H-thymidine (^3 H-TdR) was added. After 6 hours, the cells were harvested, and the amount of ^3 H-TdR uptaken into nucleus was measured by a liquid scintillation counter. The ratio (%) of the uptake of ^3 H-TdR in the sample group to that in the vehicle group was calculated and used as the in vitro mouse splenic lymphocyte-proliferation-stimulating rate.
A sample of a solution of 1 mg of Compound 33 prepared in Experimental Example 8 in 1 ml of 10% or 0.1% Polysorbate 20, a sample of a solution of 1 mg of Compound b in 1 ml of 10% Polysorbate 20, or 10% and 0.1% Polysorbate 20, were prepared by subjecting to aseptic filtration followed by sequential 10 time dilution with PBS as shown in Table 5 in order to carry out the experiment described in Experimental Example 6.
In this connection, 1 mg of Compound b was insoluble in 0.1% Polysorbate, and thus no experiment was conducted.

[5] = 0.1 mg/kg i.v. on days 1, 5 and 9
[6] = 0.1 mg/kg i.v. on days 1, 5 and 9, survival vs vehicle
[7] = 10% PS20 stock (compound 1 mg/ml), dilution 10^2
[8] = 10% PS20 stock (compound 1 mg/ml), dilution 10^3
[9] = 10% PS20 stock (compound 1 mg/ml), dilution 10^4
[10] = 10% PS20 stock (compound 1 mg/ml), dilution 10^5

CCCCCCCCCCCCCCCCCCCCCC[C@@H](O)C(=O)N[C@@H](CO[C@H]1O[C@H](CO)[C@H](O)[C@H](O[C@H]2O[C@H](CO)[C@H](O)[C@H](O)[C@H]2NC(C)=O)[C@H]1O[C@H]1O[C@H](CO)[C@@H](O)[C@H](O)[C@H]1O)[C@H](O)[C@H](O)CCCCCCCCCCCCCC [Compound 4, O-(N-acetyl-2-amino-2-deoxy-α-D-galactopyranosyl)-(1→3)-O-[α-D-glucopyranosyl-(1→2)]-O-α-D-galactopyranosyl-(1→1)-(2S,3S,4R)-2-amino-N-[(R)-2-hydroxytetracosanoyl]-1,3,4-octadecanetriol]
Survival days ave. ± s. d. [1, 5]: 15.2 ± 0.5 days
T/C (%) [1, 6]: 119%
Maximum tumor growth inhibiting rate, TGIR (%) (B16 mouse melanoma cells): 84.0%
Uptake of 3H-TdR (% of control), bone marrow cells (mouse bone marrow cells; 10^-1 μg/ml): 512 % of control
Uptake of 3H-TdR (% of control), bone marrow cells (mouse bone marrow cells; 10^-2 μg/ml): 163 % of control
Uptake of 3H-TdR (% of control), splenic lymphocytes (mouse splenic lymphocyte; 10^0 μg/ml): 792 % of control
Uptake of 3H-TdR (% of control), splenic lymphocytes (mouse splenic lymphocyte; 10^-1 μg/ml): 692 % of control
Uptake of 3H-TdR (% of control), splenic lymphocytes (mouse splenic lymphocyte; 10^-2 μg/ml): 395 % of control
Uptake of 3H-TdR (% of control), splenic lymphocytes (mouse splenic lymphocyte; 10^-3 μg/ml): 325 % of control
MLR activating rate (%) ([2]; 1 × 10^0 μg/ml): 209%
MLR activating rate (%) ([2]; 1 × 10^-1 μg/ml): 163%
Number of surviving mice (lethally irradiated mice; day 10): 10 mice
Number of surviving mice (lethally irradiated mice; day 15): 8 mice
Number of surviving mice (lethally irradiated mice; day 20): 8 mice
Number of surviving mice (lethally irradiated mice; day 25): 6 mice
Number of surviving mice (lethally irradiated mice; day 30): 5 mice
Number of surviving mice (lethally irradiated mice; day 35): 5 mice
Number of surviving mice (lethally irradiated mice; day 40): 5 mice
amount of Polysorbate 20 required for dissolving, relative to that required for Compound b [3]: 1/100

CCCCCCCCCCCCCCCCCCCCCCCCCC(=O)N[C@@H](CO[C@H]1O[C@H](CO)[C@H](O)[C@H](O)[C@H]1O)[C@H](O)[C@H](O)CCCCCCCCCCCCCC [Compound b, (2S,3S,4R)-1-(α-D-galactopyranosyloxy)-2-hexacosanoylamino-3,4-octadecanediol, reference compound]
Survival days ave. ± s. d. [1, 5]: 15.6 ± 0.5 days
response vs control in vivo at 0.1 mg/kg [1, 6]: 122%
activity at 0.1 µg/mL (mouse bone marrow cells; 10^-1 μg/ml): 381%
activity at 0.01 µg/mL (mouse bone marrow cells; 10^-2 μg/ml): 438%
solubility in Polysorbate, in words ([3]; 1 mg in 0.1% Polysorbate): insoluble
3H-TdR uptake in words, compound with Polysorbate 20 [4]: suppressed
3H-TdR uptake [4, 7]: 201 cpm
3H-TdR uptake [4, 8]: 18300 cpm
3H-TdR uptake [4, 9]: 24439 cpm
3H-TdR uptake [4, 10]: 25555 cpm

CCCCCCCCCCCCCCCCCCCCCCCCCC(=O)N[C@@H](CO[C@H]1O[C@H](CO[C@H]2O[C@H](CO)[C@H](O)[C@H](O)[C@H]2O)[C@H](O)[C@H](O)[C@H]1O)[C@H](O)[C@H](O)CCCCCCCCCCCCCC [Compound 33, O-α-D-galactopyranosyl-(1→6)-O-α-D-galactopyranosyl-(1→1)-(2S,3S,4R)-2-amino-N-hexacosanoyl-1,3,4-octadecanetriol]
Survival days ave. ± s. d. [1, 5]: 15.0 ± 0.7 days
response vs control in vivo at 0.1 mg/kg [1, 6]: 117%
life-span-prolonging effect (anti-tumor effect), in words ([1]; P388 s.c. system): intensive anti-tumor effects almost in the same level as that of Compound b
activity at 0.1 µg/mL (mouse bone marrow cells; 10^-1 μg/ml): 214%
activity at 0.01 µg/mL (mouse bone marrow cells; 10^-2 μg/ml): 763%
activity at 1 µg/mL (mouse splenic lymphocyte; Mus musculus, Splenic lymphocyte, 48 h, 10^0 μg/ml, read-out: Uptake of 3H-TdR (% of control), splenic lymphocytes): 954%
activity at 1 µg/mL ([2]; Mus musculus, Lymphocyte, 1 × 10^0 μg/ml, read-out: MLR activating rate (%)): 302%
activity at 0.1 µg/mL ([2]; Mus musculus, Lymphocyte, 1 × 10^-1 μg/ml, read-out: MLR activating rate (%)): 251%
amount of Polysorbate 20 required for dissolving, relative to that required for Compound b [3]: 1/100
3H-TdR-uptake-stimulating effect, in words ([4]; 10 μg/ml (0.001% Polysorbate 20)): intensive ^3 H-TdR-uptake-stimulating effect
3H-TdR uptake in words, compound with Polysorbate 20 [4]: suppressed
3H-TdR uptake ([4]; 0.1% PS20 stock (compound 1 mg/ml), dilution 10^2): 24213 cpm
3H-TdR uptake ([4]; 0.1% PS20 stock (compound 1 mg/ml), dilution 10^3): 23332 cpm
3H-TdR uptake ([4]; 0.1% PS20 stock (compound 1 mg/ml), dilution 10^4): 26249 cpm
3H-TdR uptake ([4]; 0.1% PS20 stock (compound 1 mg/ml), dilution 10^5): 23653 cpm
3H-TdR uptake [4, 7]: 119 cpm
3H-TdR uptake [4, 8]: 18447 cpm
3H-TdR uptake [4, 9]: 24671 cpm
3H-TdR uptake [4, 10]: 21677 cpm
